Molecules are shown by their SMILES.

Type in all cases: physicochemical
Series [1] can be described thus: Chemical stability of drospirenone under acid and alkaline conditions.
The nature of series [2]: In vitro dissolution, USP XXIII Paddle Method. Particulars: micronized form; rapid dissolution defined as at least 70% over about 30 minutes from a 3 mg tablet in 900 ml of water at 37° C., apparatus 2 at 50 rpm.
The nature of series [3]: Solubility of drospirenone in water and aqueous buffers. To be noted: water and aqueous buffers at various pH values.

For `C[C@]12CCC(=O)C=C1[C@@H]1C[C@@H]1[C@H]1[C@@H]3[C@@H]4C[C@@H]4[C@@]4(CCC(=O)O4)[C@@]3(C)CC[C@@H]12` [Drospirenone], the “stability under acid conditions” value in series [1] (acid conditions) was “rearranged to an inactive isomer”. The “stability under alkaline conditions” value in series [1] (alkaline conditions) is on record as “hydrolysed”. The “dissolution of the active compound from the dosage unit in vitro” value in series [2] is on record as “rapid dissolution”. The solubility result in series [3] is reported as “sparingly soluble”.

Values taken from patent US6869941B2, “Combination of drospirenone and an estrogen sulphamate for HRT” (Schering AG, priority 2001, dated 2005).
